Data reported in patent US7091197B2, “Beta-lactamase inhibitor prodrug” (Pfizer Inc., priority 2002, dated 2006).
Values after ≈ are worked out from the molar mass of the structure shown. Marks after values point to notes of the source that are not given here.

Experiments:
[1] = tested on: 21 penicillin-resistant strains of S. pneumoniae; assay: microbe, parasite or virus in culture; type: cell-based; conditions: Streptococcus pneumoniae; some S. pneumoniae clinical isolates; read-out: MICs of strains with high-level resistance
[2] = tested on: Haemophilus influenzae (54A1218); assay: Gerbil otitis media model, H. influenzae; type: in vivo
[3] = tested on: Haemophilus influenzae (54A1218); assay: Murine systemic infection model, H. influenzae; type: in vivo; conditions: 96 h, oral, single agent, H. influenzae 54A1218, survival day 4
[4] = tested on: Moraxella catarrhalis (87A1115); assay: Murine systemic infection model, M. catarrhalis; type: in vivo; conditions: 96 h, oral, single agent, M. catarrhalis 87A1115, survival day 4
[5] = tested on: Staphylococcus aureus (01A0400); assay: Murine systemic infection model, S. aureus; type: in vivo; conditions: 96 h, oral, single agent, S. aureus 01A0400, survival day 4
[6] = tested on: Klebsiella pneumonaie (53A0031); assay: Murine systemic infection model, K. pneumoniae; type: in vivo; conditions: 96 h, oral, single agent, K. pneumoniae 53A0031, survival day 4
[7] = tested on: Eschericia coli (51A0257); assay: Murine systemic infection model, E. coli; type: in vivo; conditions: Escherichia coli, 96 h, oral, single agent, E. coli 51A0257, survival day 4
[8] = tested on: Streptococcus pneumoniae (02J1095); assay: Mouse pneumonia model, S. pneumoniae 02J1095; type: in vivo; conditions: 240 h, oral, single agent, survival day 10
[9] = tested on: Streptococcus pneumoniae (02J1016); assay: Mouse pneumonia model, S. pneumoniae 02J1016; type: in vivo; conditions: 240 h, oral, single agent, survival day 10
[10] = Chemical (pH) stability in solution; type: physicochemical
Procedure: Buffers were appropriately formulated to achieve the desired pH of each incubation. […] The temperature of the incubation was regulated with a 96-well heat block. Incubations were performed at 25° C. and 37° C. […] An apparent first-order half-life could then be estimated as ln 2/kd.

[11] = target: T1, BRO-2 β-lactamase (M. catarrhalis 87A1178 ATCC43617) (Moraxella catarrhalis, UniProt Q59514); assay: β-lactamase inhibition in cell extracts, BRO-2; type: biochemical
T1 sequence (Q59514 1-313 D293G): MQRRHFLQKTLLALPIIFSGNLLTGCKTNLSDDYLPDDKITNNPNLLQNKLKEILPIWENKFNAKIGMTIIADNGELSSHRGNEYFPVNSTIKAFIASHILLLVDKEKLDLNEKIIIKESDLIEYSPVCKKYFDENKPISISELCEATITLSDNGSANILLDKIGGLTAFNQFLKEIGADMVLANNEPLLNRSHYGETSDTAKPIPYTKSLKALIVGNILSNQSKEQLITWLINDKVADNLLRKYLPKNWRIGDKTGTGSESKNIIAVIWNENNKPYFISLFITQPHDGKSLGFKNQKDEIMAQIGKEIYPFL

[12] = clavulanate in the Augmentin suspension; room temperature, 10 days; cited from earlier work
[13] = in vivo, cited from earlier work
BRO-1 and BRO-2 enzymes = BRO-1 and BRO-2 enzymes (Moraxella catarrhalis, UniProt Q59514); assay: β-lactamases from 30 recent clinical isolates of M. catarrhalis; type: biochemical; conditions: BRO-1 and BRO-2 enzymes from 30 recent clinical isolates of M. catarrhalis
[14] = Prodrug 3 suspension stability (0.5% methylcellulose); type: physicochemical; conditions: for Potency (percent) in suspension: 1.51 mg/ml, un-buffered 0.5% methylcellulose, 25° C.
in vitro = conditions: plasma
Procedure: The incubation consisted of 990 μl of plasma preincubated for 5 minutes at 37° C. in a 96-well heat block. The incubation was initiated with the addition of 10 μl of a 10 mM stock of compound in 100% methanol. Serial aliquots (100 μl) were removed and transferred to 200 μl of 75/25 acetonitrile/3% perchloric acid at 0, 1, 2, 5, 10, 20, 30, and 60 minutes. The samples were centrifuged, the supernatants transferred to injection vials, and 20 μl was injected onto the HPLC in-line with a LC/MS single quadropole mass spectrometer. The LC/MS system was run in the negative ion mode. […] The peak response at each time point was expressed as a percentage of that obtained at time=0. A degradation rate constant (kd) was obtained by regression of these percentages from time=0 minutes to […]. An apparent first-order half-life was then be estimated as ln 2/kd. These determinations were completed in duplicate and the average was reported as shown below.

[15] = target: E. coli TEM-1 beta-lactamase (Escherichia coli, UniProt P62593); assay: Beta-lactamase inhibitory activity at intestinal pH values; type: biochemical
[16] = Portal vein studies in rats; type: in vivo; conditions: portal vein cannulated rats; oral 100 mg/kg; 5, 15 and 30 minutes post dose; not detected, assay LLOQ
Procedure: Portal Vein Studies in Rats: Systemic exposure of Prodrug 3 was also assessed in portal vein cannulated rats following oral administration of the prodrug at a dose of 100 mg/kg. Whole blood aliquots were stabilized in ice cold acid immediately upon sampling at 5, 15 and 30 minutes post dose. No levels of Prodrug 3 were detected in any of the samples (assay LLOQ of 100 ng/ml).

[17] = Hepatic extraction, rat hepatocytes; type: in vitro ADME
Excerpt: (§1) L. and A. Barve, 1998. Linear correlation of the fraction of oral dose absorbed of 64 drugs between humans and rats. Pharm. Res. 15:1792–1795.). Based upon this correlation, the rat was used to predict human absorption. […] Thus, oral bioavailability assessments in rats should correlate well with the fraction absorbed in humans.

[18] = Hepatic extraction, human hepatocytes; type: in vitro ADME
Excerpt: as §1

[19] = buffer, pH 1.2, Half-life (Hours), solution stability
[20] = buffer, pH 2.5, Half-life (Hours), solution stability
[21] = buffer, pH 4, Half-life (Hours), solution stability
[22] = buffer, pH 5, Half-life (Hours), solution stability

Chain of E. coli TEM-1 beta-lactamase (P62593 24-286 limits assumed): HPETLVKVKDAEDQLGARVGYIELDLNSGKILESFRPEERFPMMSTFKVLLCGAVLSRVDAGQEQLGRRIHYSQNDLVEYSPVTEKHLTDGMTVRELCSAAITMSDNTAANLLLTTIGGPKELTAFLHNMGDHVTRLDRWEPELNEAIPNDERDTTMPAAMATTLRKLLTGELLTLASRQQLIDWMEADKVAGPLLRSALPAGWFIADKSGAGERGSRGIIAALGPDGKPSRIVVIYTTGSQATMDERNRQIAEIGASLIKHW
Chain of BRO-1 and BRO-2 enzymes (Q59514 whole entry): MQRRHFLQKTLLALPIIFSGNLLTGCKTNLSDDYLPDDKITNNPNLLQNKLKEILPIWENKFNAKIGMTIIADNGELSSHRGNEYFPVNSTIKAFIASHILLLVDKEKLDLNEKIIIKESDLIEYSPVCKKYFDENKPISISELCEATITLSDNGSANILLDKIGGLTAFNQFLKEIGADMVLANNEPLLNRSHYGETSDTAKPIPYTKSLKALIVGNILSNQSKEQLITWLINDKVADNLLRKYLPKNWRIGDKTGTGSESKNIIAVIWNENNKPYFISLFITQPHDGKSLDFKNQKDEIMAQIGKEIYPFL

CC1(C)S[C@@H]2[C@H](NC(=O)[C@H](N)c3ccc(O)cc3)C(=O)N2[C@H]1C(=O)O [Amoxicillin, amoxicillin]
MIC [1]: 4 to 8 µg/mL (≈ 10.9 to 21.9 µM) | outcome as a single agent ([2]; gerbil otitis media model): failed | ED50 [3]: > 100 mg/kg | ED50 [4]: > 100 mg/kg | ED50 [5]: > 100 mg/kg | ED50 [6]: > 200 mg/kg | ED50 [7]: > 200 mg/kg | ED50 [8]: 25 mg/kg | ED50 [9]: 3.3 mg/kg

O=C(O)[C@H]1/C(=C/CO)O[C@@H]2CC(=O)N21 [Clavulanate, lithium clavulanate]
Half-life (Hours), solution stability ([10]; buffer, 100 μM, pH 2.5): 1.2 h | Half-life (Hours), solution stability ([10]; buffer, 100 μM, pH 4): >24 h | Half-life (Hours), solution stability ([10]; buffer, 100 μM, pH 5): >24 h | Half-life (Hours), solution stability ([10]; buffer, 100 μM, pH 6.5): >24 h | Half-life (Hours), solution stability ([10]; buffer, 100 μM, pH 7.4): >24 h | half-life at 100 μM [10, 19]: 0.6 h | half-life at 100 μM [10, 20]: 0.9 h | half-life at 100 μM [10, 21]: > 24 h | half-life at 100 μM [10, 22]: > 24 h | half-life at 100 μM ([10]; buffer, pH 6.5, Half-life (Hours), solution stability): > 24 h | half-life at 100 μM ([10]; buffer, pH 7.4, Half-life (Hours), solution stability): > 24 h | IC50 [11]: 110 nM | potency retained in suspension [12]: 40% | fraction that remains unabsorbed from the intestine ([13]; human): 40% | fraction absorbed into circulation [13]: 60%

CC1(C)[C@H](C(=O)[O-])N2C(=O)[C@@H](CO)[C@H]2S1(=O)=O.[Na+] [Na-HMPAS, 4-Thia-1-azabicyclo[3,2,0]heptane-2-carboxylic acid, 6-(hydroxymethyl)-3,3-dimethyl-7-oxo-, 4,4-dioxide, monosodium salt, (2S, 5R, 6R)]
half-life at 100 μM ([10]; pH buffer, pH 1.2, pH 1.2, 25° C., 100 μM, read-out: Half-life (Hours), solution stability): > 24 h | half-life at 100 μM ([10]; pH buffer, pH 1.2, pH 1.2, 37° C., 100 μM, read-out: Half-life (Hours), solution stability): > 24 h | half-life at 100 μM ([10]; pH buffer, pH 2.5, pH 2.5, 25° C., 100 μM, read-out: Half-life (Hours), solution stability): > 24 h | half-life at 100 μM ([10]; pH buffer, pH 2.5, pH 2.5, 37° C., 100 μM, read-out: Half-life (Hours), solution stability): > 24 h | half-life at 100 μM ([10]; pH buffer, pH 4, pH 4.0, 25° C., 100 μM, read-out: Half-life (Hours), solution stability): > 24 h | half-life at 100 μM ([10]; pH buffer, pH 4, pH 4.0, 37° C., 100 μM, read-out: Half-life (Hours), solution stability): > 24 h | half-life at 100 μM ([10]; pH buffer, pH 5, pH 5.0, 25° C., 100 μM, read-out: Half-life (Hours), solution stability): > 24 h | half-life at 100 μM ([10]; pH buffer, pH 5, pH 5.0, 37° C., 100 μM, read-out: Half-life (Hours), solution stability): > 24 h | half-life at 100 μM ([10]; pH buffer, pH 6.5, pH 6.5, 25° C., 100 μM, read-out: Half-life (Hours), solution stability): > 24 h | half-life at 100 μM ([10]; pH buffer, pH 6.5, pH 6.5, 37° C., 100 μM, read-out: Half-life (Hours), solution stability): > 24 h | half-life at 100 μM ([10]; pH buffer, pH 7.4, pH 7.4, 25° C., 100 μM, read-out: Half-life (Hours), solution stability): > 24 h | half-life at 100 μM ([10]; pH buffer, pH 7.4, pH 7.4, 37° C., 100 μM, read-out: Half-life (Hours), solution stability): > 24 h | IC50 (BRO-1 and BRO-2 enzymes): 190 nM

C[C@H](OC(=O)c1ccccc1)OC(=O)[C@@H]1N2C(=O)[C@@H](CO)[C@H]2S(=O)(=O)C1(C)C [Prodrug 3, 4-Thia-1-azabicyclo[3.2.0]heptane-2-carboxylic acid, 6-(hydroxymethyl)-3,3-dimethyl-7-oxo-, (1R)-1-(benzoyloxy)ethyl ester, 4,4-dioxide (2S, 5R, 6R)]
Half-life (Hours), solution stability ([10]; buffer, 100 μM, pH 1.2): >24 h | Half-life (Hours), solution stability ([10]; buffer, 100 μM, pH 2.5): >24 h | Half-life (Hours), solution stability ([10]; buffer, 100 μM, pH 4): >24 h | Half-life (Hours), solution stability ([10]; buffer, 100 μM, pH 5): >24 h | half-life at 100 μM [10, 19]: > 24 h | half-life at 100 μM [10, 20]: > 24 h | half-life at 100 μM [10, 21]: > 24 h | half-life at 100 μM [10, 22]: > 24 h | half-life at 100 μM ([10]; buffer, pH 7, half-life of conversion of the prodrug to active inhibitor): 0.55 h | half-life at 100 μM ([10]; solution half-life): 0.5 h | Potency (percent) in suspension ([14]; Day 3): 103% | Potency (percent) in suspension ([14]; Day 5): 98% | Potency (percent) in suspension ([14]; Day 7): 104% | Potency (percent) in suspension ([14]; Day 10, pH ~6.8 initially, 4.7 by day 10): 91*** percent | potency maintained in suspension ([14]; storage at room temperature for 10 days): greater than 90% | half-life at 100 μM (in vitro; dog): 2.8 min | half-life at 100 μM (in vitro; human): < 2 min | half-life at 100 μM (in vitro; monkey): 3.6 min | half-life at 100 μM (in vitro; mouse): 2.8 min | half-life at 100 μM (in vitro; rat): < 2 min | IC50 ([15]; pH 6.0): > 100000 nM | IC50 ([15]; pH 7.0): 2200 nM | levels of Prodrug 3 in portal vein blood [16]: < 100 ng/mL | ED50 ([2]; Haemophilus influenzae, 96 h, oral, single agent, gerbil otitis media, H. influenzae 54A1218, bacterial clearance day 4): > 25 mg/kg | ED50 [3]: > 25 mg/kg | ED50 [4]: > 100 mg/kg | ED50 [5]: > 12.5 mg/kg | ED50 [6]: > 25 mg/kg | ED50 [7]: > 100 mg/kg | ED50 [8]: > 25 mg/kg | ED50 [9]: > 25 mg/kg

CC1(C)[C@H](C(=O)O)N2C(=O)[C@@H](CO)[C@H]2S1(=O)=O [Prodrug 6-β-HMPAS, 6-β-hydroxymethylpenicillanic acid sulfone]
hepatic extraction [17]: minimal hepatic extraction | hepatic extraction [18]: minimal hepatic extraction | IC50 [11]: 320 nM
